Test results published in PMC8748916, “Microbial enzymes induce colitis by reactivating triclosan in the mouse gastrointestinal tract” (Nature Communications, 2022).
Several values for one entry are separate records, joined by “and”; a condition that tells them apart may be missing. Identical values can stand only once.

What was measured:
[1] = LC-MS/MS of TCS and its metabolites in human stool and urine after use of TCS-containing personal care products; format: in vivo; details: for TCS metabolites in human stool / TCS metabolites in human urine: Treatment TCS, individual subjects; for average molar concentration ratio: TCS-exposed subjects;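 on Profile in stool (%): molar share of summed TCS plus TCS-G plus TCS-sulfate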;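 on Profile in urine (%): molar share of summed TCS plus TCS-G plus TCS-sulfate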;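 on average molar concentration ratio: molar share of summed TCS plus TCS-G plus TCS-sulfate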
Excerpt: To broaden our understanding of TCS metabolic profiles in the gut, we next analyzed TCS metabolism in human subjects. We utilized urine and stool samples from a previous study in which the recruited human subjects were first subjected to a washout period (no usage of TCS-containing products), then were randomly assigned to two groups that used personal care products like toothpaste with or without TCS for up to four months (see the scheme of the experiment in Fig. 1c)[15]. Previous data had established that humans are primarily exposed to TCS via toothpaste that provides a direct oral route to the gastrointestinal tract[16],[17].

[2] = LC-MS/MS profiling of TCS metabolism in mice (TCS via diet for 4 weeks); details: for concentration of TCS, TCS-G, TCS-Sulfate: individual mice
[3] = tested on: enzymes extracted from human fecal samples; assay: In fimo assay (TCS-G turnover rate by human fecal extracts); format: biochemical; details: Fig. 3c, replicates 1-3
Procedure: Fecal extracts were prepared and proteomic analysis was performed exactly as previously described. In total, 10 g of frozen human fecal sample was thawed and added to 25 mL extraction buffer (25 mM HEPES, 25 mM NaCl pH 6.5 with Roche Complete protease inhibitor tablet) and 0.5 g autoclaved garnet beads. The mixture was vortexed until homogenous and centrifuged at low speed (300 × g for 5 min at 4 °C). The supernatant was decanted. In all, 25 mL buffer was added to the pellet and the vortex and centrifugation steps repeated. The supernatants from these steps were then combined and centrifuged at low speed for two more cycles. The resultant supernatant was sonicated twice using 1 s pulses for 1.5 min and the lysate was centrifuged at 17,000 × g for 20 min in a Beckman Coulter J2-HC centrifuge. The decanted lysate was then washed with several exchanges of extraction buffer to remove metabolites and small molecules. Total protein concentration was quantitated using a Bradford assay. The fecal lysate was diluted to 1 mg/mL concentration and snap-frozen in small aliquots.
Reaction mixtures contained 5 µL fecal extract (0.1 mg/mL final), 30 µL TCS-G (200 µM final), and 15 µL assay buffer (25 mM HEPES, 25 mM NaCl, pH 6.5). Reactions were quenched at five time points with 50 µL 25% trichloroacetic acid. Samples were centrifuged 20 min at 16,000 × g in a tabletop centrifuge, and the supernatant was analyzed via the same HPLC method described for the catalytic efficiency assay. Reaction rates were determined by fitting progress curves using linear regression and are expressed as initial turnover rates (µM/s). Controls contained fecal extract that had been heat-killed at 95 °C for 5 min. Reported rates are the average of three biological replicates ±SEM.

[4] = treatment time 0 months (after washout)

O=S(=O)(O)Oc1cc(Cl)ccc1Oc1ccc(Cl)cc1Cl [TCS-sulfate, triclosan-sulfate]
Profile in urine (%) ([1]; TCS-exposed human subjects, n=7 urine samples): 0.04%
Profile in stool (%) ([1]; TCS-exposed human subjects, n=23 stool samples): 0.0365%
TCS metabolites in human stool [1, 4]: 0.311 pmol/ g stool and < LOD
TCS metabolites in human urine [1, 4]: 0.071 nM urine and < LOD (3×)
TCS metabolites in human stool ([1]; treatment time 1 month): 1.344 pmol/ g stool and < LOD (3×) and 0.342 pmol/ g stool and 0.381 pmol/ g stool
TCS metabolites in human urine ([1]; treatment time 1 month): 0.470 nM urine
TCS metabolites in human stool ([1]; treatment time 2 months): < LOD (4×) and 0.999 pmol/ g stool
TCS metabolites in human urine ([1]; treatment time 2 months): 0.522 nM urine
TCS metabolites in human stool ([1]; treatment time 3 months): 0.987 pmol/ g stool and < LOD (5×)
TCS metabolites in human urine ([1]; treatment time 3 months): 0.157 nM urine
TCS metabolites in human stool ([1]; treatment time 4 months): 0.971 pmol/ g stool and < LOD (4×) and 0.236 pmol/ g stool
TCS metabolites in human urine ([1]; treatment time 4 months): 0.257 nM urine and < LOD and 0.689 nM urine and 0.388 nM urine
average molar concentration ratio ([1]; human stool): 0.0%
average molar concentration ratio ([1]; human urine): 0.0%
concentration of TCS, TCS-G, TCS-Sulfate ([2]; Bile, 80 ppm TCS via diet 4 weeks): 93.62 pmol/mg and 49.05 pmol/mg and 43.31 pmol/mg and 67.29 pmol/mg
concentration of TCS, TCS-G, TCS-Sulfate ([2]; Cecum (digesta), 80 ppm TCS via diet 4 weeks): 0.12 pmol/mg and 0.13 pmol/mg and 0.09 pmol/mg and 0.35 pmol/mg and 0.29 pmol/mg and 0.53 pmol/mg and 0.56 pmol/mg and 0.38 pmol/mg and 0.61 pmol/mg and 0.54 pmol/mg
concentration of TCS, TCS-G, TCS-Sulfate ([2]; Cecum digesta, 1 ppm TCS in diet 4 weeks): 0 pmol/mg
concentration of TCS, TCS-G, TCS-Sulfate ([2]; Cecum digesta, 10 ppm TCS in diet 4 weeks): 0.02 pmol/mg and 0 pmol/mg and 0.01 pmol/mg
concentration of TCS, TCS-G, TCS-Sulfate ([2]; Cecum digesta, 80 ppm TCS in diet 4 weeks): 0.03 pmol/mg and 0.05 pmol/mg and 0.08 pmol/mg and 0.06 pmol/mg and 0.13 pmol/mg
concentration of TCS, TCS-G, TCS-Sulfate ([2]; Colon (digesta), 80 ppm TCS via diet 4 weeks): 1.16 pmol/mg and 1.00 pmol/mg and 1.32 pmol/mg and 1.31 pmol/mg and 2.15 pmol/mg and 0.67 pmol/mg and 0.75 pmol/mg and 2.57 pmol/mg and 1.48 pmol/mg and 2.39 pmol/mg
concentration of TCS, TCS-G, TCS-Sulfate ([2]; Colon digesta, 1 ppm TCS in diet 4 weeks): 0 pmol/mg
concentration of TCS, TCS-G, TCS-Sulfate ([2]; Colon digesta, 10 ppm TCS in diet 4 weeks): 0.2 pmol/mg and 0 pmol/mg and 0.03 pmol/mg and 0.01 pmol/mg and 0.05 pmol/mg and 0.02 pmol/mg
concentration of TCS, TCS-G, TCS-Sulfate ([2]; Colon digesta, 80 ppm TCS in diet 4 weeks): 0.3 pmol/mg and 0.21 pmol/mg and 0.1 pmol/mg and 0.13 pmol/mg and 0.22 pmol/mg and 0.09 pmol/mg and 0.81 pmol/mg and 0.37 pmol/mg
concentration of TCS, TCS-G, TCS-Sulfate ([2]; Feces, 1 ppm TCS in diet 4 weeks): 0.05 pmol/mg
concentration of TCS, TCS-G, TCS-Sulfate ([2]; Feces, 10 ppm TCS in diet 4 weeks): 0.1 pmol/mg and 0.16 pmol/mg
concentration of TCS, TCS-G, TCS-Sulfate ([2]; Feces, 80 ppm TCS in diet 4 weeks): 3.27 pmol/mg and 1.08 pmol/mg
Level in Cecum ([2]; Fig. S3b, Cecum, individual mice No. 1-10 per row): 0.53 and 0.56 and 0.38 and 0.61 and 0.54 and 0.12 and 0.13 and 0.09 and 0.35 and 0.29
Level in Colon ([2]; Fig. S3b, Colon, individual mice No. 1-10 per row): 0.78 and 1.13 and 3.01 and 1.95 and 2.87 and 1.28 and 1 and 1.68 and 1.44 and 2.3
Level in SI 1st section ([2]; Fig. S3b, SI 1st section, individual mice No. 1-10 per row): 7.35 and 7.33 and 7.48 and 7.82 and 9.31 and 9.27 and 9.71 and 4.38 and 7.68 and 8.04
Level in SI 2nd section ([2]; Fig. S3b, SI 2nd section, individual mice No. 1-10 per row): 6.24 and 6.6 and 5.34 and 6.55 and 6.34 and 6.37 and 6.86 and 2.98 and 4.48 and 5.78
Level in SI 3rd section ([2]; Fig. S3b, SI 3rd section, individual mice No. 1-10 per row): 5.62 and 5.7 and 3.67 and 5.46 and 7.7 and 5.86 and 4.93 and 2.15 and 4.34 and 5.06
Level in SI 4th section ([2]; Fig. S3b, SI 4th section, individual mice No. 1-10 per row): 7.25 and 6.61 and 6.48 and 10.63 and 8.75 and 6.52 and 6.94 and 2.9 and 7.06
concentration of TCS, TCS-G, TCS-Sulfate ([2]; Heart, 80 ppm TCS via diet 4 weeks): 10.90 pmol/mg and 8.11 pmol/mg and 9.20 pmol/mg and 10.24 pmol/mg
concentration of TCS, TCS-G, TCS-Sulfate ([2]; Liver, 80 ppm TCS via diet 4 weeks): 37.26 pmol/mg and 31.81 pmol/mg and 21.91 pmol/mg and 24.89 pmol/mg and 30.95 pmol/mg and 12.68 pmol/mg and 35.36 pmol/mg and 32.58 pmol/mg and 32.38 pmol/mg and 20.28 pmol/mg
concentration of TCS, TCS-G, TCS-Sulfate ([2]; SI 1st section (digesta), 80 ppm TCS via diet 4 weeks): 7.33 pmol/mg and 7.48 pmol/mg and 7.82 pmol/mg and 9.31 pmol/mg
concentration of TCS, TCS-G, TCS-Sulfate ([2]; SI 2nd section (digesta), 80 ppm TCS via diet 4 weeks): 6.37 pmol/mg and 6.86 pmol/mg and 2.98 pmol/mg and 4.48 pmol/mg and 5.78 pmol/mg and 6.24 pmol/mg and 6.60 pmol/mg and 5.34 pmol/mg and 6.55 pmol/mg and 6.34 pmol/mg
concentration of TCS, TCS-G, TCS-Sulfate ([2]; SI 3rd section (digesta), 80 ppm TCS via diet 4 weeks): 5.86 pmol/mg and 4.93 pmol/mg and 2.15 pmol/mg and 4.34 pmol/mg and 5.06 pmol/mg and 5.62 pmol/mg and 5.70 pmol/mg and 3.67 pmol/mg and 5.46 pmol/mg and 7.70 pmol/mg
concentration of TCS, TCS-G, TCS-Sulfate ([2]; SI 4th section (digesta), 80 ppm TCS via diet 4 weeks): 6.52 pmol/mg and 6.94 pmol/mg and 2.90 pmol/mg and 6.61 pmol/mg and 7.06 pmol/mg and 7.25 pmol/mg and 6.48 pmol/mg and 10.63 pmol/mg and 8.75 pmol/mg
share of TCS metabolites found ([2]; digesta of the 4th section of the mouse small intestine, 80 ppm TCS via diet 4 weeks): 7.7%
share of TCS metabolites found ([2]; fecal content, 80 ppm TCS via diet 4 weeks): 0.2%

O=C(O)[C@H]1OC(Oc2cc(Cl)ccc2Oc2ccc(Cl)cc2Cl)[C@H](O)[C@@H](O)[C@@H]1O (stereo partly shown) [TCSG]
TCSG turnover rate ([3]; human fecal extract sample F2): 0.0489 µM/s and 0.0506 µM/s and 0.0488 µM/s
TCSG turnover rate ([3]; human fecal extract sample F3): 0.0556 µM/s and 0.0559 µM/s and 0.0553 µM/s
TCSG turnover rate ([3]; human fecal extract sample F4): 0.036 µM/s and 0.0272 µM/s and 0.0271 µM/s
TCSG turnover rate ([3]; human fecal extract sample M1): 0.063 µM/s and 0.0659 µM/s and 0.0613 µM/s
TCSG turnover rate ([3]; human fecal extract sample M2): 0.0168 µM/s and 0.0179 µM/s and 0.0157 µM/s
TCSG turnover rate ([3]; human fecal extract sample M3): 0.0438 µM/s and 0.0439 µM/s and 0.0436 µM/s
